Results as given in patent US20240116885A1, “BENZOTHIAZOLE AND QUINOLINE DERIVATIVES AND THEIR USE” (Shanghai Yao Yuan Biotechnology Co., Ltd., priority 2020, published 2024).

Assays:
[1] = test system: ALPK1-dependent NFκB reporter gene activation; assay: NFκB gene reporter alkaline phosphatase assay in HEK293 G9 cells; format: cell-based; settings: Homo sapiens; HEK293 G9 cells stimulated with D-glycero-D-manno-6-fluoro-heptose-1β-S-ADP
Method: An alkaline phosphatase reporter assay system was used to measure inhibition of ALPK1-dependent NFκB reporter gene activation. Briefly, HEK293 cells stably expressing an NF-kB reporter (referred to herein as “G9 cells”) were maintained in DMEM as described above. For the assay, cells were seeded into 96-well plates at a density of 10,000 cells/well in Freestyle™ 293 Expression Medium (ThermoFisher), and allowed to attach overnight. Cells were pretreated with serially diluted compounds for 30 min and then stimulated with D-glycero-D-manno-6-fluoro-heptose-1β-S-ADP. […] NFkB gene activation was detected using the chromogenic substrate, para-nitrophenyl phosphate (pNPP) according to the manufacturer's protocols (pNPP Phosphatase Assay, Beyotime Biotechnology).

ALPK1 = ALPK1 (Homo sapiens (Human), UniProt Q96QP1); assay: ALPK1 in vitro kinase assay (HTRF, TIFA phosphorylation); format: biochemical; settings: ADP-Heptose activated ALPK1
Method: ALPK1 kinase activity was measured in an in vitro assay using ADP-Heptose as the ALPK1 ligand and activator of its kinase activity and TIFA protein as the ALPK1 phosphorylation substrate. Since phosphorylated TIFA proteins oligomerize, Homogeneous Time-Resolved Fluorescence (HTRF) was used to measure protein:protein interaction between HA-tagged TIFA proteins as an indicator of TIFA phosphorylation.
In brief, dose-response studies were performed with HEK293 cells cultured in Dulbecco's Modified Eagle Medium (DMEM) supplemented 10% fetal bovine serum (FBS, Hyclone™) containing antibiotics (pen/strep, G418) in 384-well assay plates. Each well contained 0.1 mg TIFA, ALPK1 (2 nM final concentration in reaction mixture) and kinase buffer (100 mM of HEPES pH 7.4, 4 mM DTT, 40 mM MgCl2, 20 mM of β-Glycerol phosphate disodium salt, 0.4 mM of Na3VO4, 0.16 mg/mL). Titrations of the test compounds were prepared in dimethylsulphoxide (DMSO). The reaction was initiated by addition of ATP and ADP-Heptose.
For HTRF, samples were incubated with a Tb cryptate-labeled anti-HA antibody for capturing HA-tagged proteins according to the manufacturer's instructions (PerkinElmer™, CisBio™) and the fluorescence signal was quantified (Tecan Infinite F NANO+). HTRF signals were calculated as the HTRF ratio (ratio of fluorescence measured at 665 nm and 620 nm)×104 (thereby using the signal at 620 nm as an internal standard).
IC50 values were determined using 3- or 4-parameter logistic equation using GraphPad Prism version 6.00. The reference compound, A027, was used as a positive control for each plate.

Chain of ALPK1 (Q96QP1 whole entry): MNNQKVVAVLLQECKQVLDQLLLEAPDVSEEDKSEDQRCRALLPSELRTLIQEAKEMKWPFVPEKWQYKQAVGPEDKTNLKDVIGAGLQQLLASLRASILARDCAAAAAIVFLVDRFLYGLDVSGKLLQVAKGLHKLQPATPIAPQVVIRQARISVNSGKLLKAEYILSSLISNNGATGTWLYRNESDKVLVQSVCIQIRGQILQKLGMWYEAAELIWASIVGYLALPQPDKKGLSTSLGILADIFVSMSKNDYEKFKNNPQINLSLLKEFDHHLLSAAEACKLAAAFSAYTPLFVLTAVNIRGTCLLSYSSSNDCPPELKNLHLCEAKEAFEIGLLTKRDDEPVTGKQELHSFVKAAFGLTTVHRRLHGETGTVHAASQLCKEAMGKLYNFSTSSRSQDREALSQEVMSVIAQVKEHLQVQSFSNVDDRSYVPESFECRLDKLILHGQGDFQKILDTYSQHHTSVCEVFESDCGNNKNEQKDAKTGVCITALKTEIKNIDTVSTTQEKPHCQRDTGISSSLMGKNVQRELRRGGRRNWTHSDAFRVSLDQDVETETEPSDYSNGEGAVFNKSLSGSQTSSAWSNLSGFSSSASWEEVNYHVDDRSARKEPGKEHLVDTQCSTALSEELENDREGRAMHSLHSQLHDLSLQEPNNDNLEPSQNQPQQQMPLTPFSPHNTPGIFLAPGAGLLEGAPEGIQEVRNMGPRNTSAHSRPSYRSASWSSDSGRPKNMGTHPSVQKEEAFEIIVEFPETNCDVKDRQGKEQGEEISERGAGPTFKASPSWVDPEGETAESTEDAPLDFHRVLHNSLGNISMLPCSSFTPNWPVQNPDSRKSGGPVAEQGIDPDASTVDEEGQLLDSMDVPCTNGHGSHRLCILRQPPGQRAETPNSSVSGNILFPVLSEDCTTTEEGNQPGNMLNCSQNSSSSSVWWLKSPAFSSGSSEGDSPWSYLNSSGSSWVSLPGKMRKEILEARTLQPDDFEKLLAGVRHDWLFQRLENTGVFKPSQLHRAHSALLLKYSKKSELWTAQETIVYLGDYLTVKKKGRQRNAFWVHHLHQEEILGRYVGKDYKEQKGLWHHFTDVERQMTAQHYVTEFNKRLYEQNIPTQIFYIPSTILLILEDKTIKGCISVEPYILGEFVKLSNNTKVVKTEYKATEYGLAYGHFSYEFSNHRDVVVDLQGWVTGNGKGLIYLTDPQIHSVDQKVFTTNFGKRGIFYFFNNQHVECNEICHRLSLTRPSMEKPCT

Structure (SMILES) | IC50 [1] [nM] | IC50 (ALPK1) [nM]
COc1cccc2sc(NC(=O)c3c(F)cc(N4CCN(CCO)CC4)cc3F)nc12 [Compound T025, 2,6-difluoro-4-(4-(2-hydroxyethyl)piperazin-1-yl)-N-(4-methoxybenzo[d]thiazol-2-yl)benzamide] | 2920 | 148
COc1cccc2sc(NC(=O)c3c(F)cc(N4CCC(N)C4)cc3F)nc12 (stereo not drawn) [Compound T026, 4-(3-aminopyrrolidin-1-yl)-2,6-difluoro-N-(4-methoxybenzo[d]thiazol-2-yl)benzamide] | 2380 | 125
COc1cccc2sc(NC(=O)c3c(F)cc(N4CCC(O)C4)cc3F)nc12 (stereo not drawn) [Compound T027, 2,6-difluoro-4-(3-hydroxypyrrolidin-1-yl)-N-(4-methoxybenzo[d]thiazol-2-yl)benzamide] | 3650 | 1170
COc1cccc2sc(NC(=O)c3c(F)cc(N4CCC(O)CC4)cc3F)nc12 [Compound T028, 2,6-difluoro-4-(4-hydroxypiperidin-1-yl)-N-(4-methoxybenzo[d]thiazol-2-yl)benzamide] | 1490 | 248
COc1cccc2sc(NC(=O)c3c(F)cc(OCCO)cc3F)nc12 [Compound T029, 2,6-difluoro-4-(2-hydroxyethoxy)-N-(4-methoxybenzo[d]thiazol-2-yl)benzamide] | 2990 | 560
COc1cc(F)cc2sc(NC(=O)c3c(F)cc(N4CCNCC4)cc3F)nc12 [Compound T030, 2,6-difluoro-N-(6-fluoro-4-methoxybenzo[d]thiazol-2-yl)-4-(piperazin-1-yl)benzamide] | 2220 | 318
O=C(Nc1nc2c(Br)cccc2s1)c1c(F)cc(N2CCNC(CO)C2)cc1F (stereo not drawn) [Compound T033, N-(4-bromobenzo[d]thiazol-2-yl)-2,6-difluoro-4-(3-(hydroxymethyl)piperazin-1-yl)benzamide] | 1330 | 38
Cc1cc(Cl)cc2sc(NC(=O)c3c(F)cc(N4CCNCC4)cc3F)nc12 [Compound T038, N-(6-chloro-4-methylbenzo[d]thiazol-2-yl)-2,6-difluoro-4-(piperazin-1-yl)benzamide] | 9980 | 255
COc1cccc2sc(NC(=O)c3c(F)cc(C(=O)N4CCNCC4)cc3F)nc12 [Compound T040, 2,6-difluoro-N-(4-methoxybenzo[d]thiazol-2-yl)-4-(piperazine-1-carbonyl)benzamide] | 6330 | 341
COc1cc(Cl)cc2sc(NC(=O)c3c(F)cc(N4CCNCC4)cc3F)nc12 [Compound T043, N-(6-chloro-4-methoxybenzo[d]thiazol-2-yl)-2,6-difluoro-4-(piperazin-1-yl)benzamide] | 3980 | 401
CN1CCN(c2cc(F)c(C(=O)Nc3nc4c(Br)cccc4s3)c(F)c2)CC1 [Compound T044, N-(4-bromobenzo[d]thiazol-2-yl)-2,6-difluoro-4-(4-methylpiperazin-1-yl)benzamide] | 1090 | 13
O=C(Nc1nc2c(O)cccc2s1)c1c(F)cc(N2CCNCC2)cc1F [Compound T045, 2,6-difluoro-N-(4-hydroxybenzo[d]thiazol-2-yl)-4-(piperazin-1-yl)benzamide] | 4150 | 1650
O=C(Nc1nc2c(Cl)cccc2s1)c1c(F)cc(N2CCNCC2)cc1F [Compound T046, N-(4-chlorobenzo[d]thiazol-2-yl)-2,6-difluoro-4-(piperazin-1-yl)benzamide] | 1320 | 56
C#Cc1cccc2sc(NC(=O)c3c(Cl)cc(N4CCNCC4)cc3Cl)nc12 [Compound T048, 2,6-dichloro-N-(4-ethynylbenzo[d]thiazol-2-yl)-4-(piperazin-1-yl)benzamide] | 7130 | 9
CC#Cc1cccc2sc(NC(=O)c3c(F)cc(N4CCNCC4)cc3F)nc12 [Compound T049, 2,6-difluoro-4-(piperazin-1-yl)-N-(4-(prop-1-yn-1-yl)benzo[d]thiazol-2-yl)benzamide] | 2100 | 43
